Data as given in US20230233569A1 (Revolution Medicines, Inc., priority 2020, published 2023).
“And” between values parts separate entries of the source, which are not always exact repeats. Equal entries are not always repeated.

Key:
NRAS G12C = NRAS G12C (Homo sapiens, UniProt P01111+P62937, G12C); assay: Disruption of BRAF RBD interaction with Ras (FRET / MOA assay, with Cyclophilin A); type: biochemical; settings: NRAS G12C; read-out: NRAS G12C FRET data IC50
[1] = system: K-Ras G12C (NCI-H358 cells); assay: Potency assay: pERK (AlphaLISA SureFire or In-Cell Western); type: cell-based; settings: Homo sapiens, NCI-H358; H358 KRAS G12C; read-out: pERK EC50
In short: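 NCI-H358 cells plated overnight, then treated 4 h at 37 °C with 10-point 3-fold DMSO dilutions (10 mM top stock), in duplicate. pERK1/2 read by AlphaLISA SureFire Ultra lysate assay or by In-Cell Western with DRAQ5 DNA stain. IC50 from 4-parameter sigmoidal fit of signal vs log concentration.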

NRAS Q61R = NRAS Q61R (Homo sapiens, UniProt P01111+P62937, Q61R); assay: Disruption of BRAF RBD interaction with Ras (FRET / MOA assay, with Cyclophilin A); type: biochemical; settings: NRAS Q61R; read-out: NRAS Q61R FRET data IC50
Sequence of NRAS Q61R (P01111 whole entry Q61R): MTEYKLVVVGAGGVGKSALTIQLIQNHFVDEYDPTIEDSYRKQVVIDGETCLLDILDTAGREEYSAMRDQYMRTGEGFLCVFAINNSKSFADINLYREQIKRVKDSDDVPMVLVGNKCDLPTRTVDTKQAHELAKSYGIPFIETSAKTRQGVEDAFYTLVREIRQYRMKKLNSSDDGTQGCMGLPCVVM
Sequence of NRAS Q61R (P62937 whole entry): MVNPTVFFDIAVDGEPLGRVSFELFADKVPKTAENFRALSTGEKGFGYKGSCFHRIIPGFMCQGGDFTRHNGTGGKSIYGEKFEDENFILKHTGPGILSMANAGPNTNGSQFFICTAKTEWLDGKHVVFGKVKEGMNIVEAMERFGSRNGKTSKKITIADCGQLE
In short: (§1)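 TR-FRET in 25 mM HEPES pH 7.3, 100 mM NaCl, 5 mM MgCl2, 0.1% BSA: 25 μM Cyclophilin A, 12.5 nM His6-Ras-GMPPNP, 50 nM GST-BRAF RBD with compound (10-point 3-fold series from 30 μM), 3 h at 25° C. Anti-His Eu/anti-GST APC added, 1.5 h more; IC50 from decreased FRET ratio versus DMSO.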

NRAS Q61K = NRAS Q61K (Homo sapiens, UniProt P01111+P62937, Q61K); assay: as above; type: biochemical; settings: NRAS Q61K; read-out: NRAS Q61K FRET data IC50
Sequence of NRAS Q61K (P01111 whole entry Q61K): as the sequence (P01111 whole entry Q61R) above, with R61K counted along it
Sequence of NRAS Q61K (P62937 whole entry): as the sequence (P62937 whole entry) above
In short: as §1

NCI-H358 (K-Ras G12C) = assay: CellTiter-Glo cell viability assay, 5-day treatment; type: cell-based; settings: Homo sapiens, NCI-H358, H358, K-Ras G12C; read-out: Additional H358 Cell Viability assay data (K-Ras G12C, IC50)
In short: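 Compounds were dispensed directly onto seeded cells and incubated for 5 days, then plates were equilibrated to room temperature for about 30 minutes before luminescence reading. Signals were expressed as percent of the mean DMSO control and fitted with a four-parameter logistic curve.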

KRAS G12C = KRAS G12C (Homo sapiens, UniProt P01116+P62937, G12C); assay: Disruption of BRAF RBD interaction with Ras (FRET / MOA assay, with Cyclophilin A); type: biochemical; settings: KRAS G12C; read-out: KRAS G12C FRET data IC50
Sequence of KRAS G12C (P01116 1-169 isoform P01116-2 G12C): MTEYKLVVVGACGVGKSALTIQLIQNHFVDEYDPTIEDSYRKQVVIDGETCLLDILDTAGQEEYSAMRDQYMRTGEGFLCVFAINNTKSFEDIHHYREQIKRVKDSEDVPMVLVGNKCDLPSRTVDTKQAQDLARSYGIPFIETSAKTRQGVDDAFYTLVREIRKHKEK
Sequence of KRAS G12C (P62937 whole entry): as the sequence (P62937 whole entry) above
In short: (§2)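 Cyclophilin A-dependent ternary complex assay. K-Ras loaded with nucleotide; BRAF RBD as effector. Cpd top 30 μM final, 3 h at 25 °C. Readout: TR-FRET ratio, IC50.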

KRAS G12S = KRAS G12S (Homo sapiens, UniProt P01116+P62937, G12S); assay: as above; type: biochemical; settings: read-out: KRAS G12S FRET data, IC50
Sequence of KRAS G12S (P01116 1-169 isoform P01116-2 G12S limits assumed): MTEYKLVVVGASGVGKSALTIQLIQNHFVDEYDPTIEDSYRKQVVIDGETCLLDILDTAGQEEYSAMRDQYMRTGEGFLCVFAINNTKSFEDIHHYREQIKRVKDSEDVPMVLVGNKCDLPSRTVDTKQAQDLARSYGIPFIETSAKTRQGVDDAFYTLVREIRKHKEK
Sequence of KRAS G12S (P62937 whole entry): as the sequence (P62937 whole entry) above
In short: as §2

KRAS G12V = KRAS G12V (Homo sapiens, UniProt P01116+P62937, G12V); assay: as above; type: biochemical; settings: KRAS G12V; read-out: KRAS G12V FRET data IC50
Sequence of KRAS G12V (P01116 1-169 isoform P01116-2 G12V limits assumed): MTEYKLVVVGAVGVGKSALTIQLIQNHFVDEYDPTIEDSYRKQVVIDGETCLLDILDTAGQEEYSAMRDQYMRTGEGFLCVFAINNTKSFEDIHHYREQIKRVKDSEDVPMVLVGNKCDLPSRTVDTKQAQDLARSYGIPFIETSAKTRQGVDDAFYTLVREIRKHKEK
Sequence of KRAS G12V (P62937 whole entry): as the sequence (P62937 whole entry) above
In short: as §2

KRAS WT = KRAS WT (Homo sapiens, UniProt P01116+P62937); assay: as above; type: biochemical; settings: KRAS WT; read-out: KRAS WT FRET data IC50
Sequence of KRAS WT (P01116 1-169 isoform P01116-2 limits assumed): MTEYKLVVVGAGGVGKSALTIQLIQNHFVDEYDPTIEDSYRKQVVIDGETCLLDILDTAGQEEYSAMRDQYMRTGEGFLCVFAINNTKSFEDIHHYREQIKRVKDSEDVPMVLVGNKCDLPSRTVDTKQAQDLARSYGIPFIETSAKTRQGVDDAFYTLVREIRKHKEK
Sequence of KRAS WT (P62937 whole entry): as the sequence (P62937 whole entry) above
In short: as §2

KRAS G12D = KRAS G12D (Homo sapiens, UniProt P01116+P62937, G12D); assay: as above; type: biochemical; settings: read-out: KRAS G12D FRET data, IC50
Sequence of KRAS G12D (P01116 1-169 isoform P01116-2 G12D limits assumed): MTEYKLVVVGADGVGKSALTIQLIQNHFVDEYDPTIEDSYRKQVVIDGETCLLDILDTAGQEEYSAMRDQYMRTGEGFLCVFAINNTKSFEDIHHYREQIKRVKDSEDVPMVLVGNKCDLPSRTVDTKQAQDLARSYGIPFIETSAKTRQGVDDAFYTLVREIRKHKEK
Sequence of KRAS G12D (P62937 whole entry): as the sequence (P62937 whole entry) above
In short: as §2

KRAS G13C = KRAS G13C (Homo sapiens, UniProt P01116+P62937, G13C); assay: as above; type: biochemical; settings: KRAS G13C; read-out: KRAS G13C FRET data IC50
Sequence of KRAS G13C (P01116 1-169 isoform P01116-2 G13C): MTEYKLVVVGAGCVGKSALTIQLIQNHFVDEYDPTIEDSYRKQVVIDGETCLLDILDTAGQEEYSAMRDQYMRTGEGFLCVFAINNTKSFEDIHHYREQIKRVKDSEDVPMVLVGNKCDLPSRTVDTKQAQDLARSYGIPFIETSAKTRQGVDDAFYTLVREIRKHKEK
Sequence of KRAS G13C (P62937 whole entry): as the sequence (P62937 whole entry) above
In short: as §2

KRAS G13D = KRAS G13D (Homo sapiens, UniProt P01116+P62937, G13D); assay: as above; type: biochemical; settings: KRAS G13D; read-out: KRAS G13D FRET data IC50
Sequence of KRAS G13D (P01116 1-169 isoform P01116-2 G13D limits assumed): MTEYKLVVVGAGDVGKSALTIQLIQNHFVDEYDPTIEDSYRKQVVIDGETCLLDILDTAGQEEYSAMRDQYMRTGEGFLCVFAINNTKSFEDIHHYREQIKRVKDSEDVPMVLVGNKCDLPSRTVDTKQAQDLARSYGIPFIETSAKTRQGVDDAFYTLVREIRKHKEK
Sequence of KRAS G13D (P62937 whole entry): as the sequence (P62937 whole entry) above
In short: as §2

Sequence of NRAS G12C (P01111 whole entry G12C): as the sequence (P01111 whole entry Q61R) above, with G12C, R61Q counted along it
Sequence of NRAS G12C (P62937 whole entry): as the sequence (P62937 whole entry) above

| SMILES | IC50 (NRAS G12C) | EC50 [1] | IC50 (NRAS Q61R) | IC50 (NRAS Q61K) | IC50 (NCI-H358 (K-Ras G12C)) | IC50 (KRAS G12C) | IC50 (KRAS G12S) | IC50 (KRAS G12V) | IC50 (KRAS WT) | IC50 (KRAS G12D) | IC50 (KRAS G13C) | IC50 (KRAS G13D) |
| --- | --- | --- | --- | --- | --- | --- | --- | --- | --- | --- | --- | --- |
| C=CC(=O)N1CC2(C1)OCCN2C(=O)N(C)[C@H](C(=O)N[C@H]1Cc2nc(cs2)-c2ccc3c(c2)c(c(-c2cccnc2[C@H](C)OC)n3CC)CC(C)(C)COC(=O)C2CCCN(N2)C1=O)C(C)C (stereo partly shown) [Example A620] | < 10 nM | < 5000 nM | 100 to 1000 nM | 10 to 100 nM | < 10 nM |  |  |  |  |  |  |  |
| C=CC(=O)N(C)[C@H]1CN(C(=O)N(C)[C@H](C(=O)N[C@H]2Cc3nc(cs3)-c3ccc4c(c3)c(c(-c3cccnc3[C@H](C)OC)n4CC)CC(C)(C)COC(=O)C3CCCN(N3)C2=O)C(C)C)C[C@@H]1F (stereo partly shown) [Example A632] | 10 to 100 nM | < 5000 nM | 100 to 1000 nM | 100 to 1000 nM | 100 to 1000 nM |  |  |  |  |  |  |  |
| C=CC(=O)N1CCO[C@H]2CN(C(=O)N(C)[C@H](C(=O)N[C@H]3Cc4cccc(n4)-c4ccc5c(c4)c(c(-c4cccnc4[C@H](C)OC)n5CC)CC(C)(C)COC(=O)C4CCCN(N4)C3=O)C(C)C)C[C@H]21 (stereo partly shown) [Example A597] | 10 to 100 nM | < 5000 nM | 100 to 1000 nM | 100 to 1000 nM | < 10 nM |  |  |  |  |  |  |  |
| C=CC(=O)N(C)[C@H]1CN(C(=O)N(C)[C@H](C(=O)N[C@H]2Cc3nc(cs3)-c3ccc4c(c3)c(c(-c3cccnc3[C@H](C)OC)n4CC)CC(C)(C)COC(=O)C3CCCN(N3)C2=O)C(C)C)C[C@H]1F (stereo partly shown) [Example A631] | 10 to 100 nM | < 5000 nM | 100 to 1000 nM | 10 to 100 nM | < 10 nM |  |  |  |  |  |  |  |
| C=CC(=O)N1CC2[C@@H](C1)CN2C(=O)N(C)[C@H](C(=O)N[C@H]1Cc2nc(cs2)-c2ccc3c(c2)c(c(-c2cccnc2[C@H](C)OC)n3CC)CC(C)(C)COC(=O)[C@@H]2CCCN(N2)C1=O)C(C)C (stereo partly shown) [Example A686] | 10 to 100 nM | < 5000 nM | 100 to 1000 nM | 10 to 100 nM | < 10 nM |  |  |  |  |  |  |  |
| CCn1c(-c2cccnc2[C@H](C)OC)c2c3cc(ccc31)-c1csc(n1)C[C@H](NC(=O)[C@@H](F)COC1CN(C(=O)C#CC(C)(C)N(C)C)C1)C(=O)N1CCCC(N1)C(=O)OCC(C)(C)C2 (stereo partly shown) [Example A626] | < 10 nM | < 5000 nM | 1000 to 10000 nM | 1000 to 10000 nM | 10 to 100 nM |  |  |  |  |  |  |  |
| C=CC(=O)N1CCCC2(CCN(C(=O)N(C)[C@H](C(=O)N[C@H]3Cc4nc(cs4)-c4ccc5c(c4)c(c(-c4cccnc4[C@H](C)OC)n5CC)CC(C)(C)COC(=O)C4CCCN(N4)C3=O)C(C)C)CC2)C1 (stereo partly shown) [Example A635] | 100 to 1000 nM | < 5000 nM | 100 to 1000 nM | 100 to 1000 nM | 100 to 1000 nM |  |  |  |  |  |  |  |
| C=CC(=O)N1CCO[C@@H]2CCN(C(=O)N(C)[C@H](C(=O)N[C@H]3Cc4nc(cs4)-c4ccc5c(c4)c(c(-c4cccnc4[C@H](C)OC)n5CC)CC(C)(C)COC(=O)C4CCCN(N4)C3=O)C(C)C)CC21 (stereo partly shown) [Example A596] | 10 to 100 nM | < 5000 nM | 10 to 100 nM | 10 to 100 nM | < 10 nM |  |  |  |  |  |  |  |
| C=CC(=O)N1CC[C@H](C(=O)N(C)[C@H](C(=O)N[C@H]2Cc3cccc(c3)-c3ccc4c(c3)c(c(-c3cccnc3[C@H](C)OC)n4CC)CC(C)(C)COC(=O)C3CCCN(N3)C2=O)[C@@H](C)C(F)(F)F)C1 (stereo partly shown) [Example A640] | 100 to 1000 nM | < 5000 nM | 1000 to 10000 nM | 1000 to 10000 nM | 10 to 100 nM |  |  |  |  |  |  |  |
| C=CC(=O)N1CC[C@H](C(=O)N(C)[C@H](C(=O)N[C@H]2Cc3cccc(c3)-c3ccc4c(c3)c(c(-c3cccnc3[C@H](C)OC)n4CC)CC(C)(C)COC(=O)C3CCCN(N3)C2=O)[C@H](C)C(F)(F)F)C1 (stereo partly shown) [Example A641] | 100 to 1000 nM | < 5000 nM | 1000 to 10000 nM | 1000 to 10000 nM | 10 to 100 nM |  |  |  |  |  |  |  |
| CC#C[S+]([O-])N1CC[C@H](C(=O)N(C)[C@H](C(=O)N[C@H]2Cc3cccc(c3)-c3ccc4c(c3)c(c(-c3cccnc3[C@H](C)OC)n4CC)CC(C)(C)COC(=O)[C@@H]3CCCN(N3)C2=O)C2CCCC2)C1 (stereo partly shown) [Example A310] | 100 to 1000 nM | < 5000 nM |  |  | 10 to 100 nM | 100 to 1000 nM | 1000 to 10000 nM | 1000 to 10000 nM | 1000 to 10000 nM | > 10000 nM | 1000 to 10000 nM | > 10000 nM |
| CCn1c(-c2cccnc2[C@H](C)OC)c2c3cc(ccc31)-c1cc(O)cc(c1)C[C@H](NC(=O)[C@H](C(C)C)N(C)C(=O)c1nc(NC(=O)/C=C/CN(C)C)cs1)C(=O)N1CCC[C@H](N1)C(=O)OCC(C)(C)C2 [Example A258] | 100 to 1000 nM | < 5000 nM |  |  | 100 to 1000 nM | 100 to 1000 nM | 1000 to 10000 nM | 100 to 1000 nM and 1000 to 10000 nM | 100 to 1000 nM and 1000 to 10000 nM | 1000 to 10000 nM and > 10000 nM | < 10 nM and 10 to 100 nM | 100 to 1000 nM and 1000 to 10000 nM |
| C=CC(=O)N(C)CCN(C)C(=O)N(C)[C@H](C(=O)N[C@H]1Cc2nc(cs2)-c2ccc3c(c2)c(c(-c2cccnc2[C@H](C)OCC)n3CC)CC(C)(C)COC(=O)[C@@H]2CCCN(N2)C1=O)C(C)C [Example A437] | 10 to 100 nM | < 5000 nM |  |  | 10 to 100 nM | 10 to 100 nM | 100 to 1000 nM | 100 to 1000 nM | 100 to 1000 nM | 1000 to 10000 nM | 100 to 1000 nM | 1000 to 10000 nM |
| CCn1c(-c2cccnc2COC)c2c3cc(ccc31)-c1cc(O)cc(c1)C[C@H](NC(=O)[C@H](C(C)C)N(C)C(=O)[C@H]1CCN(C(=O)C#CC(C)(C)N(C)C)C1)C(=O)N1CCC[C@H](N1)C(=O)OCC(C)(C)C2 [Example A162] | < 10 nM | < 5000 nM |  |  | < 10 nM | < 10 nM | 1000 to 10000 nM | 100 to 1000 nM | 1000 to 10000 nM | 1000 to 10000 nM | 100 to 1000 nM | 1000 to 10000 nM |
| CCn1c(-c2cccnc2[C@H](C)OC)c2c3cc(ccc31)-c1cccc(c1)C[C@H](NC(=O)[C@H](C(C)C)N(C)C(=O)[C@@H]1CCN(C(=O)C#CC(C)(C)N3CCC3)C1)C(=O)N1CCC[C@H](N1)C(=O)OCC(C)(C)C2 [Example A476] | 10 to 100 nM | < 5000 nM |  |  | < 10 nM | 10 to 100 nM | 1000 to 10000 nM | 1000 to 10000 nM | 1000 to 10000 nM | 1000 to 10000 nM | 100 to 1000 nM | 1000 to 10000 nM |
